# Tested on: pulmonary artery smooth muscle cells derived from patients with idiopathic pulmonary arterial hypertension (IPAH-PASMCs)
# Assay: Suppression of proliferation of IPAH-PASMCs (MTT assay)
# Type: cell-based, human
# Conditions: 0.001-5 μM celastrol, 48 hours
# Procedure: The ability of celastrol to suppress the proliferation of pulmonary artery smooth muscle cells from patients with pulmonary hypertension (IPAH-PASMCs) was assessed. Specifically, first, on day −1, 66 μl each of pulmonary artery smooth muscle cells derived from patients with idiopathic pulmonary arterial hypertension (IPAH-PASMCs) suspended in a 10% FBS medium (DMEM supplemented with 10% FBS) were seeded in a 96-well plate at 50,000 cells/ml. 24 Hours after the cell seeding (the time point was defined as day 0), 33 μl each of 0.003 μM, 0.03 μM, 0.3 μM, 3 μM, and 15 μM solutions of celastrol in 10% FBS containing 1% DMSO were added to the wells so that the final concentrations were 0.001 μM, 0.01 μM, 0.1 μM, 1 μM, and 5 μM, respectively. As a control, 33 μl of 10% FBS containing 1% DMSO was added in place of celastrol. On day 0 (immediately before the addition of celastrol), a cell viability was confirmed by performing MTT assay using CellTiter 96 (trademark) AQueous One Solution Cell Proliferation Assay (promega). Further, on day 2, i.e., 48 hours after the addition of celastrol, the MTT assay was performed again to observe a change in cell viability. Thus, a cell proliferation-suppressing effect was assessed.
structure (smiles),measurement,value
"CC1=C(O)C(=O)C=C2C1=CC=C1[C@@]2(C)CC[C@@]2(C)[C@@H]3C[C@](C)(C(=O)O)CC[C@]3(C)CC[C@]12C [celastrol, (2R,4aS,6aS,12bR,14aS,14bR)-10-hydroxy-2,4a,6a,9,12b,14a-hexamethyl-11-oxo-1,2,3,4,4a,5,6,6a,11,12b,13,14,14a,14b-tetradecahydropicene-2-carboxylic acid]",cell proliferation-suppressing effect,a cell proliferation-suppressing effect on pulmonary artery smooth muscle cells derived from patients with idiopathic pulmonary arterial hypertension was obtained
